The test system of data set [1] is multiple myeloma cell line RPMI 8226. The data set is described as follows: Calcein AM cytotoxicity assay, RPMI 8226. Conditions: exposure 72 h (b71 says 96 h), mean ± SD. In kind it is cell-based.
The test system of data set [2] is T-lymphoblastic leukaemia cell line CEM. The data set is described as follows: Calcein AM cytotoxicity assay, CEM. In kind it is cell-based. Conditions: read-out: IC50 assessed by Calcein AM assay of surviving cells.
The subject of data set [3] is malignant human melanoma cell line G361. The data set is described as follows: Calcein AM cytotoxicity assay, G 361. The class given is cell-based.
Data set [4] relates to normal human fibroblasts (BJ). The data set is described as follows: Calcein AM cytotoxicity assay, BJ. The class given is cell-based. Conditions: read-out: IC50 assessed by Calcein AM assay of surviving cells.
In data set [5] the test system is normal and cancer cell lines of different histopathological origin. The data set is described as follows: Calcein AM cytotoxicity assay, summary statements over the cell line panel. Conditions: for cytotoxic / growth inhibitory activity in words: tested in amounts up to 50 μmol/L per assay. The class given is cell-based. The procedure:
Stock solutions ([…]) were prepared by dissolving relevant quantity of substance in DMSO cultivation media (DMEM, RPMI 1640, F-12 medium), fetal bovine serum (FBS), L-glutamine, penicillin, and streptomycin were purchased from Sigma (MO, USA). 3-(4,5-Dimethylthiazol-2-yl)-2,5-diphenyltetrazolium bromide (MTT) was from Serva Electrophoresis (Heidelberg, Germany). Monoclonal mouse anti-bromodeoxyuridine (BrdU) intibody was obtained from DakoCytomation (Glostrup, Denmark). Calcein AM was obtained from PAA Laboratories GmbH (Pasching, Austria). The screening cell lines (T-lymphoblastic leukaemia cell line CEM; breast carcinoma cell line MCF-7 (estrogen-sensitive), breast adenocarcinoma cell line MDA-MB 468 (cell lines LNCaP (androgen-sensitive), prostate carcinoma cell line DU-145 ([…]), lung carcinoma cell line A-549, chronic myelogenous leukemia cell line K562, multiple myeloma cell line RPMI 8226, cervical carcinoma cell line HeLa, malignant human melanoma cell line G361, osteosarcoma cell line HOS, and normal human fibroblasts (BJ) were obtained from the American Type Culture Collection (Manassas, Va., USA). MCF-7 cells were cultured in F-12 medium (Sigma, MO, USA). LNCaP cells were cultured in RPMI 1640 medium (GIBCO, USA). All other cells were cultured in DMEM medium (Sigma, MO, USA). All used media were supplemented with 10% heat-inactivated fetal bovine serum, 2 mmol/L L-glutamine, 1% penicillin/streptomycin. The cell lines were maintained under standard cell culture conditions at 37° C. and 5% CO2 in a humid environment. Cells were subcultured twice or three times a week using the standard trypsinization procedure (Sigma, USA).
The cell suspension of approximate density of 1.25×10^5 cells/mL was redistributed into 96-well microtitre plates and after 12 h of stabilization the tested Brassinosteroids (BRs) were added in different concentrations. BRs were dissolved in DMSO. Control cultures were treated with DMSO alone. The final concentration of DMSO in the reaction mixture never exceeded 1%. Tested compounds in given concentrations were added at time zero in 20 μL aliquots to the microtiter plate wells. Usually, each test compound was evaluated at six 4-fold dilutions. In routine testing, the highest well concentration was 50 μmol, but it can be the matter of change dependent on the agent. Cultivation proceeds 96 h at 37° C., the cells were incubated with Calcein AM solution (Molecular Probes) for 1 h. Fluorescence (OD) of viable cells was quantified with Fluoroscan Ascent (Microsystems). The cell survival (IC50) was calculated using the following equation: IC50=(ODdrug exposed well/mean ODcontrol wells)×100%. Each compound was tested in triplicates and the test was repeated at least 3 times. The IC50 value, corresponding to drug concentration lethal to 50% of the tumor cells, was calculated from the obtained dose response curves.
We investigated effects of brassinosteroid on viability of normal and cancer cell lines of different histopathological origin. To evaluate the cytotoxic properties of several BRs and some related steroids, we used T-lymphoblastic leukaemia cell line CEM, breast carcinoma cell line MCF-7, lung carcinoma cell line A-549, chronic myeloid leukaemia cell line K562, multiple myeloma cell line RPMI 8226, cervical carcinoma cell line HeLa, malignant melanoma cell line G361, osteosarcoma cell line HOS, and normal human fibroblasts BJ. The cells were exposed to six 4-fold dilutions of each drug for 72 h to determinate number of surviving cells.

Data set [6] has as its system arena viruses. Conditions: cited from earlier work.
Data set [7] relates to herpes simplex virus type 1 (HSV-1). Conditions: cited from earlier work.
The subject of data set [8] is measles virus (MV). Conditions: cited from earlier work.
[9] abbreviates: RPMI 8226, read-out: IC50 assessed by Calcein AM assay of surviving cells.
The mark [10] stands for this setting: CEM, six 4-fold dilutions, exposure 72 h (b71 says 96 h), mean ± SD.
The mark [11] stands for this setting: G 361, exposure 72 h (b71 says 96 h), mean ± SD, read-out: IC50 assessed by Calcein AM assay of surviving cells.
Where [12] appears, read: BJ normal fibroblasts, exposure 72 h (b71 says 96 h), mean ± SD.
[13] abbreviates: Homo sapiens, RPMI-8226, RPMI 8226, read-out: IC50 assessed by Calcein AM assay of surviving cells.
Setting [14] is: Homo sapiens, G 361, exposure 72 h (b71 says 96 h), mean ± SD, read-out: IC50 assessed by Calcein AM assay of surviving cells.
The mark [15] stands for this setting: Homo sapiens, Fibroblast, BJ normal fibroblasts, exposure 72 h (b71 says 96 h), mean ± SD.
The mark [16] stands for this setting: Homo sapiens, RPMI-8226, read-out: IC50 assessed by Calcein AM assay of surviving cells, RPMI 8226.
[17] abbreviates: Homo sapiens, G-361, read-out: IC50 assessed by Calcein AM assay of surviving cells.

Entries after “also recorded” stand apart in the source; their conditions may differ. Like-named read-outs stand apart in the source and are kept apart here.

Regarding `CC[C@@H](C(C)C)[C@H](O)[C@@H](O)[C@@H](C)[C@H]1CC[C@H]2[C@@H]3CC(=O)[C@H]4C[C@H](O)[C@H](O)C[C@]4(C)[C@H]3CC[C@]12C` [22S,23S-28-Homocastasterone], the IC50 (as a rule, the point on the concentration scale where inhibition reaches its midpoint) was 25 µM in data set [1] (setting [9]), 24 ± 1.5 µM in data set [2] (setting [10]), 45 ± 2.2 µM in data set [3] (setting [11]) and more than 50 µM in data set [4] (setting [12]).

For `CC(C)[C@@H](C)[C@H](O)[C@@H](O)[C@@H](C)[C@H]1CC[C@H]2[C@@H]3COC(=O)[C@H]4C[C@H](O)[C@H](O)C[C@]4(C)[C@H]3CC[C@]12C` [22S,23S-24-Epibrassinolide], the half-maximal inhibitory concentration (IC50) in data set [1] (setting [9]), in data set [2] (setting [10]), in data set [3] (setting [11]) and in data set [4] (setting [12]) was more than 50 µM throughout.

As for `CC(C)[C@@H](C)/C=C/[C@@H](C)[C@H]1CC[C@H]2[C@@H]3CC=C4C[C@@H](O)CC[C@]4(C)[C@H]3CC[C@]12C` [Brassicasterol], the “cytotoxic / growth inhibitory activity in words” value in data set [5] is recorded as “Almost zero activity”. The IC50 in data set [1] (setting [9]), in data set [2] (setting [10]), in data set [3] (setting [11]) and in data set [4] (setting [12]) was more than 50 µM throughout.

As for `CC(C)[C@H](C)[C@@H](O)[C@H](O)[C@@H](C)[C@H]1CC[C@H]2[C@@H]3CC(=O)[C@H]4C[C@H](O)[C@H](O)C[C@]4(C)[C@H]3CC[C@]12C` [Brassinosteroid 8, Castasterone], the “cytotoxic / growth inhibitory activity in words” value in data set [5] is “high cytotoxicity”.

`CC[C@@H](C(C)C)[C@@H](O)[C@H](O)[C@@H](C)[C@H]1CCC2C3COC(=O)C4C[C@H](O)[C@H](O)C[C@]4(C)C3CC[C@@]21C` (some centres unmarked) [Brassinosteroid 2]: the IC50 in data set [1] (setting [13]) is more than 50 µM; in data set [2] (setting [10]), 48 ± 1.3 µM; in data set [3] (setting [14]), more than 50 µM; in data set [4] (setting [15]) it was more than 50 µM.

For `CC(C)[C@H](C)[C@@H](O)[C@H](O)[C@@H](C)[C@H]1CCC2C3COC(=O)C4C[C@H](O)[C@H](O)C[C@]4(C)C3CC[C@@]21C` (some centres unmarked) [Brassinosteroid 1], the IC50 in data set [1] (setting [16]) is more than 50 µM; in data set [2], more than 50 µM; in data set [3] (setting [17]) it was more than 50 µM; in data set [4] (Homo sapiens, Fibroblast), more than 50 µM.

As for `CC(C)[C@H](C)[C@@H](O)[C@H](O)[C@@H](C)[C@H]1CCC2C3CC(=O)C4C[C@H](O)[C@H](O)C[C@]4(C)C3CC[C@@]21C` (some centres unmarked) [Brassinosteroid 8], the IC50 is 33 ± 1.3 µM in data set [1] (setting [13]), 16 ± 5.3 µM in data set [2] (setting [10]), more than 50 µM in data set [3] (setting [14]) and more than 50 µM in data set [4] (setting [15]).

`CC[C@H](CC[C@@H](C)[C@H]1CC[C@H]2[C@@H]3CC=C4C[C@@H](O)CC[C@]4(C)[C@H]3CC[C@]12C)C(C)C` [Sitosterol]: in data set [5], the “cytotoxic / growth inhibitory activity in words” value is listed as “Almost zero activity”. The IC50 in data set [1] (setting [9]) was 32 ± 1.6 µM; in data set [2] (setting [10]), more than 50 µM; in data set [3] (setting [11]), more than 50 µM; in data set [4] (setting [12]), more than 50 µM.

For the compound `CC(C)CCC[C@@H](C)[C@H]1CC[C@H]2[C@@H]3CC=C4C[C@@H](O)CC[C@]4(C)[C@H]3CC[C@]12C` [Cholesterol], the half-inhibitory concentration (IC50) in data set [1] (setting [13]) is more than 30 µM; in data set [1] (setting [9]), 38 ± 2.9 µM; in data set [2] (setting [10]), more than 50 µM; in data set [3] (setting [14]), more than 50 µM; in data set [4] (setting [15]) it was more than 50 µM.

Consider `CC(C)[C@H](C)[C@@H](O)[C@H](O)[C@@H](C)[C@H]1CCC2C3CC(=O)C4C[C@H](O)[C@@H](O)C[C@]4(C)C3CC[C@@]21C` (some centres unmarked) [Brassinosteroid 16], for which the IC50 in data set [1] (setting [9]), in data set [2] (setting [10]), in data set [3] (setting [11]) and in data set [4] (setting [12]) was more than 50 µM each time.

As to `CC(C)[C@@H](C)[C@H](O)[C@@H](O)[C@@H](C)[C@H]1CC[C@H]2[C@@H]3CC(=O)[C@H]4C[C@H](O)[C@H](O)C[C@]4(C)[C@H]3CC[C@]12C` [22S,23S-24-Epicastasterone], the IC50 in data set [1] (setting [9]) is more than 50 µM; in data set [2] (setting [10]), 49 ± 1.8 µM; in data set [3] (setting [11]), more than 50 µM; in data set [4] (setting [12]), more than 50 µM.

As to `CC[C@@H](C(C)C)[C@@H](O)[C@H](O)[C@@H](C)[C@H]1CC[C@H]2[C@@H]3COC(=O)[C@H]4C[C@H](O)[C@H](O)C[C@]4(C)[C@H]3CC[C@]12C` [Brassinosteroid 2, 28-Homobrassinolide], the “in vitro antiviral activity” value in data set [6], in data set [7] and in data set [8] was “in vitro antiviral activity” in each case.

As for `CC(C)(O)CC[C@@H](O)[C@](C)(O)[C@H]1CC[C@@]2(O)C3=CC(=O)[C@@H]4C[C@@H](O)[C@@H](O)C[C@]4(C)[C@H]3CC[C@]12C` [β-ecdyson], the “cytotoxic / growth inhibitory activity in words” value in data set [5] (listed as β-ecdysone) is “Almost zero activity; also recorded: zero growth inhibitory activity”. The IC50 in data set [1] (setting [9]), in data set [2] (setting [10]), in data set [3] (setting [11]) and in data set [4] (setting [12]) was more than 50 µM each time.

With `CC[C@H](/C=C/[C@@H](C)[C@H]1CC[C@H]2[C@@H]3CC=C4C[C@@H](O)CC[C@]4(C)[C@H]3CC[C@]12C)C(C)C` [Stigmasterol], the “cytotoxic / growth inhibitory activity in words” value in data set [5] is recorded as “Almost zero activity”. The half-maximal inhibitory concentration (IC50) in data set [1] (setting [16]) is more than 30 µM; in data set [1] (read-out: IC50 assessed by Calcein AM assay of surviving cells, RPMI 8226) it was 32 ± 0.6 µM; in data set [2], more than 50 µM; in data set [3] (setting [17]) it was more than 50 µM; in data set [4] (Homo sapiens, Fibroblast), more than 50 µM.

Regarding `CC[C@@H](C(C)C)[C@H](O)[C@@H](O)[C@@H](C)[C@H]1CC[C@H]2[C@@H]3COC(=O)[C@H]4C[C@H](O)[C@H](O)C[C@]4(C)[C@H]3CC[C@]12C` [22S,23S-28-Homobrassinolide], the IC50 in data set [5] (range over RPMI 8226 and CEM values of Table 1) is 31 to 35 µM; in data set [1] (setting [9]), 31 ± 7.3 µM; in data set [2] (setting [10]), 35 ± 2.2 µM; in data set [3] (setting [11]), more than 50 µM; in data set [4] (setting [12]), more than 50 µM.

With `CC(C)CCC[C@@H](C)[C@H]1CC[C@H]2[C@@H]3CC[C@H]4CCCC[C@]4(C)[C@H]3CC[C@]12C` [5α-cholestane], in data set [5], the “cytotoxic / growth inhibitory activity in words” value was “Almost zero activity”. Moreover, the IC50 in data set [1] (setting [13]), in data set [2] (setting [10]), in data set [3] (setting [14]) and in data set [4] (setting [15]) was more than 50 µM throughout.

Values taken from patent US20100204460A1, “NATURAL BRASSINOSTEROIDS FOR USE FOR TREATING HYPERPROLIFERATION, TREATING PROLIFERATIVE DISEASES AND REDUCING ADVERSE EFFECTS OF STEROID DYSFUNCTION IN MAMMALS, PHARMACEUTICAL COMPOSITION AND ITS USE” (priority 2007, published 2010).
